In patent US20140093486A1, “METHOD FOR PREPARING INDUCED PLURIPOTENT STEM CELLS AND ITS APPLICATIONS” (Taipei Veterans General Hospital, priority 2012, published 2014):

Tests used:
[1] = tested on: MEFs transfected with OSKM; experiment: efficiency of iPSC generation from OSKM-transfected MEFs (ALP staining); assay type: cell-based, mouse; conditions: induced by OSKM, day 21 post-reprogramming
From the text: C57/B6 mice were used in this study and all procedures involving animals were approved by the Animals Committee of the Taipei Veterans General Hospital. Murine iPSCs were generated from mouse embryonic fibroblasts (MEFs) derived from 13.5-day-old embryos of C57/B6 mice. The iPSCs were reprogrammed by the transduction of retroviral vectors encoding four transcription factors (Oct4/Sox2/Klf4/c-Myc; OSKM), or three transcription factors (Oct4/Sox2/Klf4; OSK), as described previously (Li et al., 2011). Total of 12 clones (Re-1 to Re-12; OSKM) were selected and established. The clone of Re-7 iPSCs had been stably passed to more than 100 th passages with high pluripotency. Therefore, Re-7 iPSCs were selected and widely used in this study. Briefly, undifferentiated iPSCs were routinely cultured and expanded on mitotically-inactivated MEFs (50,000 cells/cm 2) in six-well culture plates (BD Technology) in the presence of 0.3% leukemia inhibitory factor in an iPSC medium consisting of Dulbecco's Modified Eagle's Medium (DMEM; Sigma) supplemented with 15% fetal bovine serum (FBS; Invitrogen), […] minimal essential medium (MEM) nonessential amino acids (Sigma), 0.55 mM 2-mercaptoethanol (Gibco), and antibiotics (Invitrogen). Every three to four days, colonies were detached with 0.2% collagenase IV (Invitrogen), dissociated into single cells with 0.025% trypsin (Sigma) and 0.1% chicken serum (Invitrogen) in PBS, and replated onto MEFs. For embryoid body (EB) formation, iPSCs were dissociated into a single cell suspension by 0.25% trypsin-EDTA and plated onto non-adherent culture dishes in DMEM with 15% FBS, […] MEM nonessential amino acids, 0.55 mM 2-mercaptoethanol, and antibiotics at a density of 2×10^6 cells/100 mm plate. After 4 days in floating culture, EBs were transferred onto gelatin-coated plates and maintained in the same medium for 24 h. EBs were then assigned for in vitro differentiation into tridermal lineages as previously described (Li et al., 2011). […]

[2] = tested on: Mice (C57/B6); experiment: CCl4-induced acute liver injury model; assay type: in vivo, mouse; conditions: CCl4-injured mice
Method: (§1) Mice (C57/B6, 8 to 10 weeks) were housed in cage and allowed free access to food and water. Mouse was given carbon tetrachloride (CCl4, Sigma) in mineral oil (0.35·μl/g, single dose, i.p.) to induce liver injury. At 4 h post-injury, mice were randomized to receive vehicle (PBS), iPS cells or iHL (2×10^6 cells/in 100 μl PBS) infusions via tail veins. For the time points study, mouse received blood withdrawal (˜100 μl) from facial veins at scheduled time for liver biochemistry. When mouse was sacrificed, blood was drawn from the heart and the liver was harvested and prepared for subsequent experiments including histochemistry, cytokine assay, protein and gene expression analysis. For neutralizing antibody study, mouse was given two doses (0.5 μg/dose, i.p.) of anti-IP-10 antibodies (Abcam, ab9938, Cambridge, UK) at 4 h before and 4 h after injury. For 72 h survival study, mice received repetitive CCl4 injury at 0, 24 and 48 h. […]
The paraffin sections of livers were stained by H.E. and photo-taken under microscopy at 40× magnification to evaluate the degree of injury. Necrotic area were determined by measuring five independent fields per liver using a computerized morphometry system (MicroCam, M&T OPTICS, Taiwan) and expressed as percentage of the filed area. […]

[3] = tested on: hepatocytes; experiment: viability of CCl4-injured hepatocytes (MTT assay); assay type: cell-based; conditions: 0.5 or 5 ng, CCl4 concentration of 1.0 to 2.5 mM, 24 h
Method: Mouse germline-competent iPS cells were provided by Kyoto University (Dr. Shinya Yamanaka) and RIKEN BRC, Japan (Takahashi K et al. (2006) Cell 126:663-676). IPS cells were cultured as previously described (Okita K et al. (2007) Nature 448: 313-317.9). […] For recombinant IP-10 (rIP-10, Peprotech, NC) study, hepatocytes were seeded on 24-well plates at the same density. The rIP-10 (0.5 ng or 5 ng) was given at 4 h post-injury. The viability of hepatocytes was evaluated at 24 h by methyl thiazol tetrazolium (MTT, Sigma) assay.

[4] = tested on: Mice (C57/B6); experiment: 72-hour survival of repetitive CCl4-injured mice; assay type: in vivo, mouse; conditions: repetitive CCl4 at 0, 24 and 48 h; treatment once at 4 h
Method: as §1, with “h. The iPS cells (2×10^6 cells/in 100 μl PBS) or recombinant IP10 (rIP10, 0.5 ng) were given once at 4 h and the mortality rate of mice was observed until 72 h post-injury.” for “h.”
To evaluate the survival effects of iPS cells and IP-10, the 72-hour survival rates were evaluated in repetitive CCl4-injured mice, to which two additional doses of CCl4 (given at 24 and 48 hours) were given after the first dose. […]

Compound	efficiency of iPSC generation [1]	degree of liver damage [2]	viability of injured hepatocytes [3]	72-hour survival rates [4] [%]
NC(=O)c1cccc(N)c1 [3-aminobenzamide]	reduction in the efficiency of iPSC generation			
C[C@]1(c2nc3c(C(N)=O)cccc3[nH]2)CCCN1 [ABT-888]	reduction in the efficiency of iPSC generation			
CN(C)CC(=O)Nc1ccc2[nH]c(=O)c3ccccc3c2c1 [PJ-34]	reduction in the efficiency of iPSC generation			
rIP-10: recombinant IP-10 (Peprotech)		significantly reduced	sufficiently increased the viability	100
